Measured values as given in EP4389150A1, “CONJUGATE COMPOUNDS AND THEIR USE IN CANCER TREATMENT AND DIAGNOSIS” (Technische Universität München, priority 2022, dated 2024).
“Also recorded” adds a separate entry of the source.

Legend:
[1] = test system: PSMA+ (LNCaP); assay: Cell viability (Alamar Blue), monotherapy, PSMA+ cells; assay type: cell-based; settings: Homo sapiens, 72h, pretreated with 10 mM GSH, read-out: cell viability compared to untreated cells
Procedure: (§1) Black, clear-bottom 96 well culture plates were coated with poly-L-lysine. Afterwards, the plates were washed with PBS (1 × 100 µL), cells were seeded (2000 cells/well for PC3, 10000 cells/well for LNCaP), and cultured for 24 h (PC3) or 48 h (LNCaP) at 37 °C. The culture medium was removed, and new culture medium containing 10 mM GSH-OEt was added and incubated for 1 h at 37 °C. After removal of the GSH-OEt medium, new culture medium containing the PSMA-Ruc conjugates was added. After 72 h of incubation at 37 °C, cells were treated with Alamar Blue for visualization of cell viability. […] Each data points represents one biological replicate.

[2] = test system: PC3-PIP cells / PC3-flu cells; assay: Fluorescence microscopy of Ruc delivery in PSMA+ and PSMA- cells; assay type: cell-based; settings: PSMA+ PC3-PIP versus PSMA- PC3-flu cells (Figure 4A)
Procedure: For microscopic analysis, black clear-bottom 96 well cell culture plates with cover-glass bottom (µ plate 96 well black; ibidi) were coated with poly-L-lysine (0.01% (w/v) in sterile water). Cells were seeded at a density of 20-40,000 cells/well and cultured for 24 h at 37 °C. Subsequently, the PSMA ligands (1 µM; 100 µL/well) were directly added with or without blocking and ligand treatment was accomplished for 5, 60 or 180 min at 37 °C, while in case of GSH preincubation, GSH-OEt (10 mM; 100 µL/well) was applied for 1 h at 37 °C prior to ligand treatment. For the latter case, the PSMA ligands (1 µM, 100 µL/well) were added after removal of the GSH containing medium and the incubation time was 60 min at 37 °C. Afterwards, cells were washed with PBS (2×) and fixed with 4% (w/v) PFA in PBS for 8 min at RT (pH 7.4, 100 µL/well). CellMask™ Green Plasma Membrane Stain was used to stain the cell membrane, whereas for cell nuclei DRAQ5™ was used. Before imaging, cells were washed with PBS (3×) and mounted in PBS (150 µL/well). Finally, cells were imaged using an EVOS M7000 microscope (Thermo Fisher Scientific).

[3] = test system: mCRPC; settings: TRITON2 trial, Abida et al., 2020; cited from earlier work
[4] = test system: PSMA- (PC3); assay: Cell viability (Alamar Blue), monotherapy, PSMA- cells; assay type: cell-based; settings: PC3, 20 µM, 72h, pretreated with 10 mM GSH; read-out: cell viability compared to untreated cells
Procedure: as §1

[5] = Wilson et al. 2019; cited from earlier work

Row | SMILES | viability at 20 µM [1] [%] | localization of Ruc fluorescence [2] | patients with a partial response [3] | patients with an objective response [3] [%] | viability at 20 µM [4] [%] | typical biodistribution of PARPi [5]
1 | CNCc1ccc(-c2[nH]c3cc(F)cc4c3c2CCNC4=O)cc1 [Ruc, Rucaparib] | 30 to 50 | localized in the cell nucleus of PSMA-expressing and non-expressing cells non-selectively; also recorded: non-selective uptake in PSMA+ and PSMA- cells | 30-40% | 44 | 30 to 50 | –
2 | O=C(c1cc(Cc2n[nH]c(=O)c3ccccc23)ccc1[18F])N1CCN(C(=O)C2CC2)CC1 [^18F-Olaparib] | – | – | – | – | – | low tumor uptake and high gut uptake
